{
  "source": "patent EP4120837B1",
  "about": "“INHIBITORS OF CYTOKININ OXIDASE DERIVED FROM 2-(3-PHENYLUREIDO)BENZAMIDE, USE THEREOF AND PREPARATIONS CONTAINING THESE DERIVATIVES” (Univerzita Palackého v Olomouci, priority 2020, dated 2021)",
  "data": [
    {"target": "T1, ZmCKX1 (Zea mays, UniProt Q9T0N8)", "T1 construct": "made in house; host or cells: Yarrowia lipolytica", "T1 sequence (Q9T0N8 19-534)": "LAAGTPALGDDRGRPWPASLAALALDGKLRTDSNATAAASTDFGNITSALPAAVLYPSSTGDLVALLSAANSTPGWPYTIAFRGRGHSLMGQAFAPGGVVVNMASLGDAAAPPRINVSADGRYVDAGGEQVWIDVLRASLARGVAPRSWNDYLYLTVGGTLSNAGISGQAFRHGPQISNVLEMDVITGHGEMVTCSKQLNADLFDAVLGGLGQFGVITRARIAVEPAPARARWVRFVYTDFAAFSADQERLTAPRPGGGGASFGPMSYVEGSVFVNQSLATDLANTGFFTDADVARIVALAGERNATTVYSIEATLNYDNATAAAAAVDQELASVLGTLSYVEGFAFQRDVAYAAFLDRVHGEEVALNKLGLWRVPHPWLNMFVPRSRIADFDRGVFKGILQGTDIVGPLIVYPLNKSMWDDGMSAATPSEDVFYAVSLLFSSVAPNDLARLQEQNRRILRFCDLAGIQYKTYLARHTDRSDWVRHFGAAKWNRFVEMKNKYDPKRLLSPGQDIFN", "assay": "ZmCKX1 inhibition, PMS/MTT assay", "format": "biochemical, maize", "details": "not given", "procedure": "(§1) The IC50 (concentration of a substance that causes 50% inhibition of the enzyme activity) was measured by PMS/MTT assay [phenazine methosulphate/3-(4,5-dimethylthiazol-2-yl)-2,5-diphenyltetrazolium bromide]. The assay was performed in 96-well microtiter plates. Each well contained a reaction mixture with a final concentration of: 0.1 M KH2PO4, pH 7.4, 1 mM MTT, 0.2 mM PMS, tested substance in a concentration range of 0.1 nM - 1 µM and 10 µM N^6-isopentenyladenine (iP) as a substrate. To this reaction mixture 100 µL of medium containing the active enzyme ZmCKX1 was added. The enzyme was produced by the yeast Yarrowia lipolytica and isolated according to the protocol (Kopečný D. et al., 2005, […] 87:1011-1022). The plates were incubated for 30 min at 37 °C and the enzymatic reaction was stopped by the addition of 25 µL of 35% acetic acid. Then, the absorbance at 578 nm was measured on a spectrophotometer, and the absorbance of the sample without the substrate was substracted as a reference value. The IC50 value was determined from the concentration-dependent curves in GraphPad Prism software. The values shown in Table 1 are the average of at least two measurements each performed in three repetitions. […] The substance 3,5DCl-Ph-U is 1-(3,5-dichlorophenyl)-3-phenylurea, which we have been prepared to compare its inhibitory activity with the compounds presented in the present invention. Addition of the amide group to the unsubstituted phenyl ring of this substance gives the compound 2AD-3,5DC, which has 42-fold better inhibitory activity with the ZmCKX1 enzyme than 3,5DCl-Ph-U. F-INCYDE ((2-fluoro-9H-purin-6-yl)-(3-methoxyphenyl)amine), CPPU (1-(2-chloropyridin-4-yl)-3-phenylurea), and DCPPU (1-(2,6-dichloropyridin-4-yl)-3-phenylurea) are substances known in the prior art.", "units": {"IC50": "µM"}, "values": [
      {"smiles": "COc1ccc(C(N)=O)c(NC(=O)Nc2cc(Cl)cc(Br)c2)c1", "note": "[compound 25, 2-[3-(3-bromo-5-chlorophenyl)ureido]-4-methoxybenzamide]", "IC50": 0.001},
      {"smiles": "NC(=O)c1ccc(OC(F)(F)F)cc1NC(=O)Nc1cccc(Br)c1", "note": "[compound 27, 2-[3-(3-bromophenyl)ureido]-4-trifluoromethoxybenzamide]", "IC50": 0.007},
      {"smiles": "NC(=O)c1ccc(F)cc1NC(=O)Nc1cccc(Cl)c1", "note": "[compound 12, 2-[3-(3-chlorophenyl)ureido]-4-fluorobenzamide]", "IC50": 0.09},
      {"smiles": "NC(=O)c1ccccc1NC(=O)Nc1cc(Cl)cc(OC(F)(F)F)c1", "note": "[compound 11, 2-[3-(3-Chloro-5-trifluoromethoxyphenyl)ureido]benzamide]", "IC50": 0.12},
      {"smiles": "NC(=O)c1ccccc1NC(=O)Nc1cc(Br)cc(Br)c1", "note": "[compound 7, 2-[3-(3,5-dibromophenyl)ureido]benzamide]", "IC50": 0.047},
      {"smiles": "NC(=O)c1ccc(OC(F)(F)F)cc1NC(=O)Nc1cc(Cl)cc(Cl)c1", "note": "[compound 28, 2-[3-(3,5-Dichlorophenyl)ureido]-4-trifluoromethoxybenzamide]", "IC50": 0.001},
      {"smiles": "NNC(=O)c1ccc(Br)cc1NC(=O)Nc1cc(Cl)cc(Cl)c1", "note": "[compound 45, 1-(5-Bromo-2-hydrazinocarbonylphenyl)-3-(3,5-dichlorophenyl)-urea]", "IC50": 0.02},
      {"smiles": "COc1ccc(C(N)=O)c(NC(=O)Nc2cccc(Br)c2)c1", "note": "[compound 23, 2-[3-(3-bromophenyl)ureido]-4-methoxybenzamide]", "IC50": 0.033},
      {"smiles": "COc1cc(Cl)cc(NC(=O)Nc2cc(Br)ccc2C(N)=O)c1", "note": "[compound 20, 4-bromo-2-[3-(3-chloro-5-methoxyphenyl)ureido]benzamide]", "IC50": 0.034},
      {"smiles": "O=C(Nc1cc(Cl)cc(Cl)c1)Nc1cc(Br)ccc1C(=O)NCCO", "note": "[compound 48, 4-Bromo-2-[3-(3,5-dichlorophenyl)ureido]-N-(2-hydroxy-ethyl)benzamide]", "IC50": 0.005}
    ]},
    {"target": "T1, ZmCKX1", "assay": "ZmCKX1 inhibition, PMS/MTT assay", "format": "biochemical, maize", "details": "10 µM iP as substrate, pH 7.4, 30 min at 37 °C; average of at least two measurements; read-out: IC50 (µM) ZmCKX1", "procedure": "as §1", "units": {"IC50": "µM"}, "values": [
      {"smiles": "CNC(=O)c1ccc(OC)cc1NC(=O)Nc1cccc(Cl)c1", "note": "[compound 33, 2-[3-(3-chlorophenyl)ureido]-4-methoxy-N-methylbenzamide]", "IC50": 0.006},
      {"smiles": "NC(=O)c1ccc(OC(F)(F)F)cc1NC(=O)Nc1cccc(Cl)c1", "note": "[compound 26, 2-[3-(3-chlorophenyl)ureido]-4-trifluoromethoxybenzamide]", "IC50": 0.009},
      {"smiles": "CCNC(=O)c1ccccc1NC(=O)Nc1cc(Cl)cc(Cl)c1", "note": "[compound 34, 2-[3-(3,5-dichlorophenyl)ureido]-N-ethylbenzamide]", "IC50": 0.038},
      {"smiles": "NC(=O)c1ccccc1NC(=O)Nc1cc(F)cc(Cl)c1", "note": "[compound 8, 2-[3-(3-Chloro-5-fluorophenyl)ureido]benzamide]", "IC50": 0.11},
      {"smiles": "COc1ccc(C(=O)NCCO)c(NC(=O)Nc2cccc(F)c2)c1", "note": "[compound 49, 2-[3-(3-fluorophenyl)ureido]-4-methoxy-N-(2-hydroxy-ethyl)benzamide]", "IC50": 0.04},
      {"smiles": "COc1cccc(Nc2nc(F)nc3[nH]cnc23)c1", "note": "[F-INCYDE, (2-fluoro-9H-purin-6-yl)-(3-methoxyphenyl)amine, reference compound]", "IC50": 1},
      {"smiles": "CCCNC(=O)c1ccccc1NC(=O)Nc1cccc(F)c1", "note": "[compound 39, 2-[3-(3-fluorophenyl)ureido]-N-propylbenzamide]", "IC50": 0.17},
      {"smiles": "NC(=O)c1ccc(F)cc1NC(=O)Nc1cc(Cl)cc(Cl)c1", "note": "[compound 13, 2-[3-(3,5-dichlorophenyl)ureido]-4-fluorobenzamide]", "IC50": 0.018},
      {"smiles": "NC(=O)c1ccccc1NC(=O)Nc1cc(Cl)cc(Cl)c1", "note": "[compound 6, 2-[3-(3,5-Dichlorophenyl)ureido]benzamide]", "IC50": 0.022},
      {"smiles": "O=C(Nc1ccccc1)Nc1cc(Cl)nc(Cl)c1", "note": "[DCPPU, 1-(2,6-dichloropyridin-4-yl)-3-phenylurea, reference compound]", "IC50": 4.5},
      {"smiles": "COc1cc(Cl)cc(NC(=O)Nc2cc(F)ccc2C(N)=O)c1", "note": "[compound 14, 2-[3-(3-chloro-5-methoxyphenyl)ureido]-4-fluorobenzamide]", "IC50": 0.028},
      {"smiles": "COc1ccc(C(N)=O)c(NC(=O)Nc2cccc(Cl)c2)c1", "note": "[compound 22, 2-[3-(3-chlorophenyl)ureido]-4-methoxybenzamide]", "IC50": 0.035},
      {"smiles": "CNC(=O)c1ccccc1NC(=O)Nc1cc(Cl)cc(Cl)c1", "note": "[compound 29, 2-[3-(3,5-dichlorophenyl)ureido]-N-methylbenzamide]", "IC50": 0.03},
      {"smiles": "O=C(Nc1cccc(Cl)c1)Nc1ccccc1C(=O)NCCCO", "note": "[compound 51, 2-[3-(3-chlorophenyl)ureido]-N-(3-hydroxy-propyl)benzamide]", "IC50": 0.15},
      {"smiles": "COc1cccc(NC(=O)Nc2ccccc2C(N)=O)c1", "note": "[compound 3]", "IC50": 0.32},
      {"smiles": "COc1ccc(C(=O)NCCCO)c(NC(=O)Nc2cc(Cl)cc(Cl)c2)c1", "note": "[compound 53, 2-[3-(3,5-dichlorophenyl)ureido]-4-methoxy-N-(3-hydroxy-propyl)benzamide]", "IC50": 0.02},
      {"smiles": "CCCNC(=O)c1ccc(OC)cc1NC(=O)Nc1cc(Cl)cc(Cl)c1", "note": "[compound 43, 2-[3-(3,5-dichlorophenyl)ureido]-4-methoxy-N-propylbenzamide]", "IC50": 0.004},
      {"smiles": "NNC(=O)c1ccccc1NC(=O)Nc1cc(Cl)cc(Cl)c1", "note": "[compound 44, 1-(3,5-dichlorophenyl)-3-(2-hydrazinocarbonylphenyl)-urea]", "IC50": 0.074},
      {"smiles": "CCCNC(=O)c1ccccc1NC(=O)Nc1cc(Cl)cc(Cl)c1", "note": "[compound 41, 2-[3-(3,5-dichlorophenyl)ureido]-N-propylbenzamide]", "IC50": 0.03},
      {"smiles": "NC(=O)c1ccccc1NC(=O)Nc1cccc(F)c1", "note": "[compound 1, 2-[3-(3-fluorophenyl)ureido]benzamide]", "IC50": 0.45},
      {"smiles": "NCCNC(=O)c1ccc(OC(F)(F)F)cc1NC(=O)Nc1cc(Cl)cc(Cl)c1", "note": "[compound 57, 2-[3-(3,5-dichlorophenyl)ureido]-4-trifluoromethoxy-N-(2-amino-ethyl)benzamide]", "IC50": 0.008},
      {"smiles": "CCCNC(=O)c1ccccc1NC(=O)Nc1cc(F)cc(F)c1", "note": "[compound 40, 2-[3-(3,5-difluorophenyl)ureido]-N-propylbenzamide]", "IC50": 0.062}
    ]},
    {"target": "T1, ZmCKX1", "assay": "ZmCKX1 inhibition, PMS/MTT assay", "format": "biochemical, maize", "details": "ratio versus 3,5DCl-Ph-U", "procedure": "as §1", "units": {"better inhibitory activity with the ZmCKX1 enzyme than 3,5DCl-Ph-U": "fold"}, "values": [
      {"smiles": "NC(=O)c1ccccc1NC(=O)Nc1cc(Cl)cc(Cl)c1", "note": "[compound 6, 2-[3-(3,5-Dichlorophenyl)ureido]benzamide]", "better inhibitory activity with the ZmCKX1 enzyme than 3,5DCl-Ph-U": 42}
    ]},
    {"target": "T1, ZmCKX1", "assay": "ZmCKX1 inhibition, PMS/MTT assay", "format": "biochemical, maize", "details": "read-out: IC50 (µM) ZmCKX1; 10 µM iP as substrate, pH 7.4, 30 min at 37 °C; average of at least two measurements", "procedure": "as §1", "units": {"IC50": "µM"}, "values": [
      {"smiles": "O=C(Nc1cccc(Cl)c1)Nc1cc(Br)ccc1C(=O)NCCCO", "note": "[compound 52, 4-bromo-2-[3-(3-chlorophenyl)ureido]-N-(3-hydroxy-propyl)benzamide]", "IC50": 0.08},
      {"smiles": "CCCNC(=O)c1ccc(Cl)cc1NC(=O)Nc1cc(F)cc(F)c1", "note": "[compound 42, 4-chloro-2-[3-(3,5-difluorophenyl)ureido]-N-propylbenzamide]", "IC50": 0.022},
      {"smiles": "NC(=O)c1ccc(Br)cc1NC(=O)Nc1cccc(Cl)c1", "note": "[compound 18, 4-bromo-2-[3-(3-chlorophenyl)ureido]benzamide]", "IC50": 0.011},
      {"smiles": "NCCNC(=O)c1ccc(Br)cc1NC(=O)Nc1cccc(Cl)c1", "note": "[compound 54, 4-bromo-2-[3-(3-chlorophenyl)ureido]-N-(2-amino-ethyl)benzamide]", "IC50": 0.035},
      {"smiles": "NC(=O)c1ccc(Cl)cc1NC(=O)Nc1cc(Cl)cc(Br)c1", "note": "[compound 17, 2-[3-(3-bromo-5-chlorophenyl)ureido]-4-chlorobenzamide]", "IC50": 0.001},
      {"smiles": "CNC(=O)c1ccc(Br)cc1NC(=O)Nc1cc(Cl)cc(Cl)c1", "note": "[compound 32, 4-bromo-2-[3-(3,5-dichlorophenyl)ureido]-N-methylbenzamide]", "IC50": 0.01}
    ]}
  ]
}
